Experimental data from patent US20140005070A1, “MARKERS ASSOCIATED WITH CYCLIN-DEPENDENT KINASE INHIBITORS” (Novartis AG, priority 2011, published 2014).

What was measured:
MEPCE [1] = assay: Western blot of MEPCE protein in NCI-H929 cells (FIG. 4); type: cell-based
Experimental: After treatment with a CDKI, cells were lysed in modified RIPA buffer containing 50 mM TRIS pH 7.4, 150 mM NaCl, 1 mM EDTA, 1% Brij-35, 0.1% deoxycholate, protease inhibitors (Roche Molecular Biochemicals, Mannheim, Germany). SDS-PAGE (4-12% gel) was used to resolve the proteins in the lysate. After electrophoresis, the proteins were electrotransferred onto a polyvinylidene fluoride microporous membrane and immunodetected using standard procedures. FIG. 4 is a Western blot of the multiple myeloma line NCI-H929, treated with CDKI(7) or DMSO and gene expression analyzed at certain time points during the treatment. […] Thus, the reduction in expression of genes in response to CDKI seen at the mRNA level by microarray is confirmed at the protein level by Western blotting.

MEPCE [2] = assay: Dog toxicology study, TaqMan mRNA in white blood cells after CDKI(7): MEPCE; type: in vivo
Experimental: As part of a dog toxicology study, CDKI(7) was administered to dogs. White blood cells were harvested and MEPCE, MYC and MCL1 gene expression was assessed as PD markers. mRNA levels of each of these PD markers were measured by TaqMan® at various time points after CDKI(7) treatment.
The study had three groups of three dogs each. Dogs in Group 1 (#101, #102, and #103) were treated with CDKI(7) at 0.5 mg/kg, dogs in Group 2 (#104, #105, and #106) were treated at 1 mg/kg CDKI(7) and dogs in Group 3 (#107, #108, and #109) were treated at 2 mg/kg CDKI(7). Samples were collected before treatment (0 hour), 3 hours, 7 hours and 24 hours after treatment for a total of 12 samples per group. Blood samples were received frozen in QIAGEN RNA protect® Animal Blood tubes (Cat. # 76554 QIAGEN-Valencia, Calif., USA). RNA samples were extracted using the QIAGEN RNeasy® Protect Animal Blood kit (Cat. # 73224). RNA samples were quantified using the RNA Quant-iT RNA® assay from Invitrogen (Cat. # Q32852 Invitrogen—Grand Island, N.Y., USA) and read on an Invitrogen Qubit fluorometer® (Cat. # Q32857). First strand cDNA synthesis was performed on 500 ng of RNA in a reaction volume of 20 μl using a High Capacity cDNA Reverse Transcription Kit® from Applied Biosystems (Cat. # 4368814 Applied Biosystems, Carlsbad, Calif., USA). The cDNA samples were then diluted to obtain a 10 ng cDNA input for the TaqMan® reaction. TaqMan® reactions were run in triplicates using a TaqMan® Gene Expression Master Mix from Applied Biosystems (Cat. # 4369016) on an ABI 7500® machine. The 18S rRNA level was used as an endogenous control for variations in cDNA input. The relative quantification method was used to analyze the data; this method uses one sample as a calibrator sample and express mRNA levels relative to that sample. The results were expressed as RQ values (Relative Quantification) with RQ Min and RQ Max values determining a 95% confidence interval for the real RQ value. The samples were grouped according to the dose and each group was treated as a separate experiment with one of the pre-dose samples used as a calibrator sample. The logarithm of the RQ values are plotted so that increases or decreases from the initial value can be more easily represented; on a logarithmic scale: a 10-fold increase or 10-fold decrease in RQ value are represented as +1 and −1 respectively.
The mRNA levels were determined by TaqMan® using the relative quantification method. The calibrator samples are dog #101 at 0 hour timepoint for the 0.5 mg/kg dose of CDKI(7), dog #104 at 0 hour timepoint for the 1 mg/kg dose and dog #107 at 0 hour timepoint for the CDKI(7) 2 mg/kg dose. The logarithm (base 10) of the RQ values is plotted with the error bars representing the 95% confidence interval. […] The amplitude and the duration of the down regulation are dose-dependent; at 0.5 mg/kg CDKI(7) the maximum down regulation is 3.2-fold at 3 hours, at 1 mg/kg CDKI(7) it is 5.2-fold at 7 hours and at 2 mg/kg it is 14-fold at 7 hours.

## O=C(Nc1cc(-c2cccc(NCC3CCOCC3)n2)c(Cl)cn1)[C@@H]1CCCNC1 [CDKI(7)]
MEPCE [1]; NCI-H929, Western blot, 16 hour
  MEPCE protein expression at the 16 hour time point: very little to undetectable levels of protein expression
MEPCE [1]; NCI-H929 multiple myeloma line, Western blot, versus DMSO
  MEPCE protein expression over time: reduced over time
MEPCE [2]; 0.5 mg/kg, at 3 hours
  maximum down regulation of MEPCE mRNA: 3.2 fold
MEPCE [2]; 1 mg/kg, at 7 hours
  maximum down regulation of MEPCE mRNA: 5.2 fold
MEPCE [2]; 2 mg/kg, one of the dogs (#109)
  MEPCE mRNA levels at 24 hours: some degree of down regulation
MEPCE [2]; 2 mg/kg, at 7 hours
  maximum down regulation of MEPCE mRNA: 14 fold
MEPCE [2]; 0.5 and 1 mg/kg
  MEPCE mRNA levels at 24 hours: back to pre-treatment levels
MEPCE [2]; all three doses (0.5, 1, 2 mg/kg), FIG. 6
  MEPCE mRNA regulation: clear down regulation
